Read-outs that look alike come from different tables or passages of the source.
Key:
Assay type in all cases: in vivo
[1] = tested on: Cotton Aphid (Aphis gossypii); test: Cotton aphid foliar spray assay on squash; settings: 72 h, read-out: % Control of cotton aphid on squash (foliar spray)
Experimental: Squash with fully expanded cotyledon leaves were trimmed to one cotyledon per plant and infested with cotton aphid (wingless adult and nymph) 1 day prior to chemical application. Each plant was examined before chemical application to ensure proper infestation (ca. 30-70 aphids per plant). Compounds (2 mg) were dissolved in 2 ml of acetone:methanol (1:1) solvent, forming stock solutions of 1000 ppm. The stock solutions were then diluted with a diluent consisting 80 parts of 0.025% Tween 20 in H2O and 20 parts of acetone:methanol (1:1). A hand-held Devilbiss sprayer was used to apply the test solutions until runoff to both sides of the squash cotyledon leaves. Four plants (4 replications) were used for each concentration of each compound. Reference plants (solvent check) were sprayed with the diluent only. Treated plants were held in a holding room for 3 days at approximately 23° C. and 40% RH before the number of live aphids on each plant was recorded. Insecticidal activity was measured by Corrected % Control using Abbott's correction formula and presented in Table 1: Corrected % Control=100*(X−Y)/X • where X=No. of live aphids on solvent check plants • Y=No. of live aphids on treated plants

[2] = tested on: Green Peach Aphid (Myzus persicae); test: Green peach aphid foliar spray assay on cabbage; settings: 72 h, read-out: % Control at ppm, foliar spray, green peach aphid on cabbage
Experimental: Cabbage seedlings grown in 3-inch pots, with 2-3 small (3-5 cm) true leaves, were used as test substrate. The seedlings were infested with 20-50 green peach aphids (wingless adult and nymph) 2-3 days prior to chemical application. Four seedlings were used for each treatment. Compounds (2 mg) were dissolved in 2 ml of acetone:methanol (1:1) solvent, forming stock solutions of 1000 ppm. The stock solutions were then diluted with a diluent consisting 80 parts of 0.025% Tween 20 in […] and 20 parts of acetone:methanol (1:1). A hand-held Devilbiss sprayer was used for spraying the test solutions to both sides of cabbage leaves until runoff. Reference plants (solvent check) were sprayed with the diluent only. Treated plants were held in a holding room for three days at approximately 23° C. and 40% RH prior to grading. Evaluation was conducted by counting the number of live aphids per plant under a microscope. Insecticidal activity was measured by using Abbott's correction formula: Corrected % Control=100*(X−Y)/X • where X=No. of live aphids on solvent check plants • Y=No. of live aphids on treated plants The Corrected % Control values from assays are given in Table 2.

[3] = tested on: Green Leafhopper (Nephotettix sp.); test: Green leafhopper foliar spray assay on rice
Experimental: (§1) A foliar spray assay and a root-uptake systemic assay were performed on both brown planthopper and green leafhopper. Four-week-old rice seedlings were submerged in 3-cm depth of water in the bottom portion (high 5 cm, diameter 3 cm) of a 2-part glass cylinder (high 18 cm, diameter 3 cm). A metal screen was used to hold the seedlings within the bottom portion. Scotch tape was used to bind the two portions of the cylinder after setting up the seedlings. A metal cap was used to cover the cylinder. There were 4 cylinders for each treatment. The test compound was dissolved in acetone to make a 10,000 ppm stock solution. For the foliar spray assay, this stock solution was diluted with water to make 10, 2.5, 0.31, 0.08 and 0.02 ppm test solutions. A volume of 0.5 ml of a test solution or solvent blank as check was sprayed into the glass cylinder. For systemic test, the stock solution was incorporated at final test concentrations of 10, 2.5, 0.31, 0.08 and 0.02 ppm in the water in which rice seedlings were submerged. In both foliar spray and systemic tests, five laboratory-reared 3rd instar nymphs of brown planthopper or green leafhopper were introduced into each cylinder 3 hr after insecticide application. The treated test units were kept in a growth chamber with conditions set as followings: Temperature 28±0.5° C.; Relative humidity 70±0.5%; Photoperiod […].

[4] = tested on: Brown Planthopper (Nilaparvata lugens); test: Brown planthopper root-uptake systemic assay on rice
Experimental: as §1

[5] = tested on: Brown Planthopper (Nilaparvata lugens); test: Brown planthopper foliar spray assay on rice
Experimental: as §1

[6] = tested on: Green Leafhopper (Nephotettix sp.); test: Green leafhopper root-uptake systemic assay on rice
Experimental: as §1

Q: For `N#CN=S1(=O)CCCC1Cc1ccc(C(F)(F)F)nc1` (centres unmarked) [Compound 10, 2-[(6-trifluoromethylpyridin-3-yl)methyl]-1-oxidotetrahydro-1H-1λ^4-thien-1-ylidenecyanamide], which pest or weed control at 0.781 ppm [1] is on record?
A: 60 to 69%

Q: What about the pest or weed control at 3.13 ppm [1] of the same compound?
A: 70 to 79%

Q: `CC(c1ccc(C(F)F)nc1)S(C)(=O)=NC#N` (centres unmarked) [Compound 8, [1-(6-difluoromethylpyridin-3-yl)ethyl](methyl)-oxido-λ^4-sulfanylidenecyanamide] was tested. Which pest or weed control at 0.049 ppm ([1]; 0.049 ppm, 3 days after spray) did it give?
A: 70 to 79%

Q: What about the pest or weed control at 0.195 ppm ([1]; 0.195 ppm, 3 days after spray) of the same compound?
A: 90 to 100%

Q: What about the pest or weed control at 0.781 ppm ([1]; 0.781 ppm, 3 days after spray) of the same compound?
A: 90 to 100%

Q: And the pest or weed control at 3.13 ppm ([1]; 3.13 ppm, 3 days after spray)?
A: 90 to 100%

Q: What about the pest or weed control at 0.195 ppm ([2]; 0.195 ppm, 3 days after spray) of the same compound?
A: < 50%

Q: What about the pest or weed control at 0.781 ppm ([2]; 0.781 ppm, 3 days after spray) of the same compound?
A: < 50%

Q: And the pest or weed control at 3.125 ppm ([2]; 3.125 ppm, 3 days after spray)?
A: < 50%

Q: How did the pest or weed control at 0.781 ppm ([1]; 0.781 ppm, 3 days after spray) turn out when `CS(=O)(CCc1ccc(C(F)(F)F)nc1)=NC#N` (centres unmarked) [Compound 6, [2-(6-trifluoromethylpyridin-3-yl)ethyl](methyl)-oxido-λ^4-sulfanylidenecyanamide] was run?
A: 80 to 89%

Q: What about the pest or weed control at 3.13 ppm ([1]; 3.13 ppm, 3 days after spray) of the same compound?
A: 80 to 89%

Q: Which results are given for `CC(c1ccc(C(F)(F)C(F)(F)F)nc1)S(C)(=O)=NC#N` (centres unmarked) [Compound 9, [1-(6-pentafluoroethylpyridin-3-yl)ethyl](methyl)-oxido-λ^4-sulfanylidenecyanamide]?
A: pest or weed control at 0.781 ppm ([1]; 0.781 ppm, 3 days after spray): 50 to 59%; pest or weed control at 3.13 ppm ([1]; 3.13 ppm, 3 days after spray): 90 to 100%

Q: `CC(c1ccc(C(Cl)(Cl)Cl)nc1)S(C)(=O)=NC#N` (centres unmarked) [Compound 5, [1-(6-trichloromethylpyridin-3-yl)ethyl](methyl)-oxido-λ^4-sulfanylidenecyanamide] was tested. Which pest or weed control at 0.049 ppm [1] did it give?
A: 50 to 59%

Q: What about the pest or weed control at 0.195 ppm [1] of the same compound?
A: 80 to 89%

Q: And the pest or weed control at 0.781 ppm [1]?
A: 90 to 100%

Q: And the pest or weed control at 3.13 ppm [1]?
A: 90 to 100%

Q: And the pest or weed control at 0.781 ppm [2]?
A: < 50%

Q: And the pest or weed control at 3.125 ppm [2]?
A: 80 to 89%

Q: Which pest or weed control at 0.781 ppm ([1]; 0.781 ppm, 3 days after spray) does the source give for `CC(c1ccc(C(C)(F)F)nc1)S(C)(=O)=NC#N` (centres unmarked) [Compound 12] here?
A: 90 to 100%

Q: And the pest or weed control at 3.13 ppm ([1]; 3.13 ppm, 3 days after spray)?
A: 90 to 100%

Q: What about the pest or weed control at 0.781 ppm ([2]; 0.781 ppm, 3 days after spray) of the same compound?
A: 50 to 59%

Q: What about the pest or weed control at 3.125 ppm ([2]; 3.125 ppm, 3 days after spray) of the same compound?
A: 80 to 89%

Q: For `CC(c1ccc(C(F)(F)F)nc1)S(C)(=O)=N[N+](=O)[O-]` (centres unmarked) [Compound 11, 2-trifluoromethyl-5-(1-{methyl(oxido)[oxido(oxo)hydrazono]-λ^4-sulfanyl}ethyl)pyridine], which pest or weed control at 0.049 ppm ([1]; 0.049 ppm, 3 days after spray) is on record?
A: 60 to 69%

Q: What about the pest or weed control at 0.195 ppm ([1]; 0.195 ppm, 3 days after spray) of the same compound?
A: 60 to 69%

Q: And the pest or weed control at 0.781 ppm ([1]; 0.781 ppm, 3 days after spray)?
A: 90 to 100%

Q: And the pest or weed control at 3.13 ppm ([1]; 3.13 ppm, 3 days after spray)?
A: 90 to 100%

Q: What about the pest or weed control at 0.195 ppm ([2]; 0.195 ppm, 3 days after spray) of the same compound?
A: 70 to 79%

Q: What about the pest or weed control at 0.781 ppm ([2]; 0.781 ppm, 3 days after spray) of the same compound?
A: 80 to 89%

Q: What about the pest or weed control at 3.125 ppm ([2]; 3.125 ppm, 3 days after spray) of the same compound?
A: 90 to 100%

Q: What does the source list for `N#CN=S1(=O)CCCC1c1ccc(C(F)(F)F)nc1` (centres unmarked) [Compound 3, 2-(6-trifluoromethylpyridin-3-yl)-1-oxidotetrahydro-1H-1λ^4-thien-1-ylidenecyanamide]?
A: pest or weed control at 0.049 ppm ([1]; 0.049 ppm, 3 days after spray): 90 to 100%; pest or weed control at 0.195 ppm ([1]; 0.195 ppm, 3 days after spray): 90 to 100%; pest or weed control at 0.781 ppm ([1]; 0.781 ppm, 3 days after spray): 90 to 100%; pest or weed control at 3.13 ppm ([1]; 3.13 ppm, 3 days after spray): 90 to 100%; pest or weed control at 0.195 ppm ([2]; 0.195 ppm, 3 days after spray): < 50%; pest or weed control at 0.781 ppm ([2]; 0.781 ppm, 3 days after spray): < 50%; pest or weed control at 3.125 ppm ([2]; 3.125 ppm, 3 days after spray): 60 to 69%

Q: With `CS(=O)(Cc1ccc(C(F)F)nc1)=NC#N` (centres unmarked) [Compound 7, [(6-difluoromethylpyridin-3-yl)methyl](methyl)-oxido-λ^4-sulfanylidenecyanamide] as the compound, how does the pest or weed control at 0.049 ppm ([1]; 0.049 ppm, 3 days after spray) read?
A: < 50%

Q: What about the pest or weed control at 0.195 ppm ([1]; 0.195 ppm, 3 days after spray) of the same compound?
A: 80 to 89%

Q: What about the pest or weed control at 0.781 ppm ([1]; 0.781 ppm, 3 days after spray) of the same compound?
A: 90 to 100%

Q: And the pest or weed control at 3.13 ppm ([1]; 3.13 ppm, 3 days after spray)?
A: 90 to 100%

Q: For `CS(=O)(Cc1ccc(C(F)(F)F)nc1)=NC#N` (centres unmarked) [Compound 1, [(6-trifluoromethylpyridin-3-yl)methyl](methyl)-oxido-λ^4-sulfanylidenecyanamide], which pest or weed control at 0.049 ppm ([1]; 0.049 ppm, 3 days after spray) is on record?
A: 90 to 100%

Q: What about the pest or weed control at 0.195 ppm ([1]; 0.195 ppm, 3 days after spray) of the same compound?
A: 90 to 100%

Q: What about the pest or weed control at 0.781 ppm ([1]; 0.781 ppm, 3 days after spray) of the same compound?
A: 90 to 100%

Q: What about the pest or weed control at 3.13 ppm ([1]; 3.13 ppm, 3 days after spray) of the same compound?
A: 90 to 100%

Q: And the pest or weed control at 0.781 ppm ([2]; 0.781 ppm, 3 days after spray)?
A: < 50%

Q: What about the pest or weed control at 3.125 ppm ([2]; 3.125 ppm, 3 days after spray) of the same compound?
A: 90 to 100%

Q: How did the “% Control at ppm against green leafhopper” value ([3]; 0.02 ppm) turn out when `CC(c1ccc(C(F)(F)Cl)nc1)S(C)(=O)=NC#N` (centres unmarked) [Compound 4, (1-{6-[chloro(difluoro)methyl]pyridin-3-yl}ethyl)(methyl)-oxido-λ^4-sulfanylidenecyanamide] was run?
A: E (50-59)

Q: And the “% Control at ppm against green leafhopper” value ([3]; 0.08 ppm)?
A: B (80-89)

Q: And the “% Control at ppm against green leafhopper” value ([3]; 0.31 ppm)?
A: A (90-100)

Q: And the “% Control at ppm against green leafhopper” value ([3]; 2.5 ppm)?
A: A (90-100)

Q: What about the “% Control at ppm against green leafhopper” value ([3]; 10 ppm) of the same compound?
A: A (90-100)

Q: What about the pest or weed control at 0.049 ppm [1] of the same compound?
A: 90 to 100%

Q: And the pest or weed control at 0.195 ppm [1]?
A: 90 to 100%

Q: And the pest or weed control at 0.781 ppm [1]?
A: 90 to 100%

Q: And the pest or weed control at 3.13 ppm [1]?
A: 90 to 100%

Q: What about the pest or weed control at 0.195 ppm [2] of the same compound?
A: 80 to 89%

Q: And the pest or weed control at 0.781 ppm [2]?
A: 90 to 100%

Q: What about the pest or weed control at 3.125 ppm [2] of the same compound?
A: 90 to 100%

Q: And the “% Control at ppm against brown planthopper” value ([4]; 0.02 ppm in water)?
A: F (Less than 50)

Q: And the “% Control at ppm against brown planthopper” value ([4]; 0.08 ppm in water)?
A: E (50-59)

Q: What about the “% Control at ppm against brown planthopper” value ([4]; 0.31 ppm in water) of the same compound?
A: A (90-100)

Q: And the “% Control at ppm against brown planthopper” value ([4]; 2.5 ppm in water)?
A: A (90-100)

Q: And the “% Control at ppm against brown planthopper” value ([4]; 10 ppm in water)?
A: A (90-100)

Q: What about the “% Control at ppm against brown planthopper” value ([5]; 0.02 ppm) of the same compound?
A: F (Less than 50)

Q: What about the “% Control at ppm against brown planthopper” value ([5]; 0.08 ppm) of the same compound?
A: E (50-59)

Q: What about the “% Control at ppm against brown planthopper” value ([5]; 0.31 ppm) of the same compound?
A: B (80-89)

Q: And the “% Control at ppm against brown planthopper” value ([5]; 2.5 ppm)?
A: A (90-100)

Q: And the “% Control at ppm against brown planthopper” value ([5]; 10 ppm)?
A: A (90-100)

Q: And the “% Control at ppm against green leafhopper” value ([6]; 0.02 ppm in water)?
A: E (50-59)

Q: And the “% Control at ppm against green leafhopper” value ([6]; 0.08 ppm in water)?
A: C (70-79)

Q: What about the “% Control at ppm against green leafhopper” value ([6]; 0.31 ppm in water) of the same compound?
A: A (90-100)

Q: And the “% Control at ppm against green leafhopper” value ([6]; 2.5 ppm in water)?
A: A (90-100)

Q: What about the “% Control at ppm against green leafhopper” value ([6]; 10 ppm in water) of the same compound?
A: A (90-100)
